Tests used:
[1] = test system: cancer patients; test: NHIRD statistical analysis, cancer patients overall; format: in vivo, human
Method: In this example, statistical analysis was performed on the statistics of the effects of Amlodipine in the treatment of cancers, using data from the National Health Insurance Research Database (NHIRD) covering detailed healthcare data for the population in Taiwan. Then, the diagnostic data at the time of admission in the database and the database of patients with registered major injuries were used, and statistical analysis was performed using data from patients with gastric cancer.
The dose of Amlodipine used in Example 1 was at least 120 mg/30 days. Therefore, in order to obtain the minimum effective dose, the survival rate of patients treated with Amlodipine for days in 90 days after cancer diagnosis was further statistically analyzed.

[2] = test system: patients having cervical cancer; test: NHIRD statistical analysis of death/survival with vs without Amlodipine, cervical cancer; format: in vivo, human
[3] = test system: patients having bladder cancer; test: NHIRD statistical analysis of death/survival with vs without Amlodipine, bladder cancer; format: in vivo, human
[4] = test system: liver cancer cells HepG2; test: Cell cycle analysis by flow cytometry, HepG2; format: cell-based
Method: Two liver cancer cell lines HepG2 and Hep3B were cultured. The medium used for the culture of the cells was DMEM medium containing 10% fetal bovine serum, 10,000 U/ml penicillin and 10,000 μg/ml streptomycin. The culture occurred in an environment at 37° C. with 5% CO2, and the medium was changed every 2-3 days during the culture. After the cells were cultured to about 70% confluence, they were treated with various concentrations of Amlodipine: 0, 1.5625, 3.125, 6.25, 12.5, 25, and 50 μM for various times: 48, and 72 hrs. After the experiment, the viability of each liver cancer cell line was observed and the cell viability and cell cycle were analyzed. The cell cycle of each liver cancer cell line treated under different conditions was analyzed by flow cytometry. […] Still further, each liver cancer cell line was treated with Amlodipine at a concentration of 12.5 μM for 0, 12, 24, 36 and 48 hrs, and the cell cycle was analyzed by flow cytometry.

[5] = test system: patients having breast cancer; test: NHIRD statistical analysis of death/survival with vs without Amlodipine, breast cancer; format: in vivo, human
[6] = test system: Hep3B cells; test: Cell viability (WST-1 72 hrs; PI flow cytometry 48 hrs), Hep3B; format: cell-based
Method: Two liver cancer cell lines HepG2 and Hep3B were cultured. The medium used for the culture of the cells was DMEM medium containing 10% fetal bovine serum, 10,000 U/ml penicillin and 10,000 μg/ml streptomycin. The culture occurred in an environment at 37° C. with 5% CO2, and the medium was changed every 2-3 days during the culture. After the cells were cultured to about 70% confluence, they were treated with various concentrations of Amlodipine: 0, 1.5625, 3.125, 6.25, 12.5, 25, and 50 μM for various times: 48, and 72 hrs. After the experiment, the viability of each liver cancer cell line was observed and the cell viability and cell cycle were analyzed. The HepG2 and Hep3B cells treated with various concentrations of Amlodipine for 72 hrs were added to WST-1 reagent. After 330 minutes of reaction, the absorbance at a wavelength of 420-480 nm was measured. The HepG2 and Hep3B cells treated with various concentrations of Amlodipine for 48 hrs were scraped off with 0.05% Trypsin-EDTA, and then added to 2 mg/ml PI solution. The cell viability was analyzed by flow cytometry.

[7] = test system: HepG2 cells; test: Cell invasion (Transwell, crystal violet), HepG2; format: cell-based; conditions: 10 μM, 72 hrs
Method: The HepG2 and Hep3B cells were separately cultured in the insert of the Transwell plate, then added with 10 μM Amlodipine and cultured for 48 or 72 hrs. The cells on the inner surface of the insert were taken out, and the insert was placed in methanol and stained with a crystal violet solution. […] That is, Amlodipine is effective in slowing the progression of cancers, thereby achieving a therapeutic effect in the treatment of cancers.

[8] = 24/30: Amlodipine at least 24 days within 30 days after cancer diagnosis
[9] = 48/60: Amlodipine at least 48 days within 60 days after cancer diagnosis
[10] = 72/90: Amlodipine at least 72 days within 90 days after cancer diagnosis
[11] = Amlodipine for 20 days within 90 days after diagnosis
[12] = 12.5 μM Amlodipine, treatment time 12 hr
[13] = 12.5 μM Amlodipine, treatment time 24 hr
[14] = 12.5 μM Amlodipine, treatment time 36 hr
[15] = 12.5 μM Amlodipine, treatment time 48 hr

CCOC(=O)C1=C(COCCN)NC(C)=C(C(=O)OC)C1c1ccccc1Cl (stereo not drawn) [Amlodipine]
mortality of cancer patients (in words) ([1]; Table 1, at least 120 mg/30 days): effectively reduce the mortality of cancer patients
survival rate of cancer patients (in words) ([1]; Table 2, FIGS. 1-8, 100 mg in 90 days, follow-up 3 years, vs no Amlodipine): increase the survival rate of cancer patients
Crude HR HRs (95% C.I.) [2, 8]: 0.50 (0.46-0.55)
Crude HR HRs (95% C.I.) [2, 9]: 0.51 (0.46-0.56)
Crude HR HRs (95% C.I.) [2, 10]: 0.46 (0.42-0.51)
Crude HR HRs (95% C.I.) [2, 11]: 1.00 (0.89-1.11)
Crude HR HRs (95% C.I.) [3, 8]: 0.54 (0.50-0.59)
Crude HR HRs (95% C.I.) [3, 9]: 0.55 (0.50-0.60)
Crude HR HRs (95% C.I.) [3, 10]: 0.55 (0.50-0.61)
Crude HR HRs (95% C.I.) [3, 11]: 0.82 (0.75-0.90)
Proportion of cell distribution in cell cycle (%) M1: ([4]; 1.5625 μM Amlodipine, 48 hrs): 1.58%
Proportion of cell distribution in cell cycle (%) M2: ([4]; 1.5625 μM Amlodipine, 48 hrs): 70.28%
Proportion of cell distribution in cell cycle (%) M3: ([4]; 1.5625 μM Amlodipine, 48 hrs): 8.89%
Proportion of cell distribution in cell cycle (%) M4: ([4]; 1.5625 μM Amlodipine, 48 hrs): 19.34%
Proportion of cell distribution in cell cycle (%) M1: ([4]; 3.125 μM Amlodipine, 48 hrs): 1.36%
Proportion of cell distribution in cell cycle (%) M2: ([4]; 3.125 μM Amlodipine, 48 hrs): 69.60%
Proportion of cell distribution in cell cycle (%) M3: ([4]; 3.125 μM Amlodipine, 48 hrs): 8.91%
Proportion of cell distribution in cell cycle (%) M4: ([4]; 3.125 μM Amlodipine, 48 hrs): 20.23%
Proportion of cell distribution in cell cycle (%) M1: ([4]; 6.25 μM Amlodipine, 48 hrs): 1.91%
Proportion of cell distribution in cell cycle (%) M2: ([4]; 6.25 μM Amlodipine, 48 hrs): 66.92%
Proportion of cell distribution in cell cycle (%) M3: ([4]; 6.25 μM Amlodipine, 48 hrs): 10.28%
Proportion of cell distribution in cell cycle (%) M4: ([4]; 6.25 μM Amlodipine, 48 hrs): 21.01%
Proportion of cell distribution in cell cycle (%) M1: ([4]; 12.5 μM Amlodipine, 48 hrs): 81.27%
Proportion of cell distribution in cell cycle (%) M2: ([4]; 12.5 μM Amlodipine, 48 hrs): 12.49%
Proportion of cell distribution in cell cycle (%) M3: ([4]; 12.5 μM Amlodipine, 48 hrs): 3.31%
Proportion of cell distribution in cell cycle (%) M4: ([4]; 12.5 μM Amlodipine, 48 hrs): 2.95%
Proportion of cell distribution in cell cycle (%) M1: [4, 12]: 5.01%
Proportion of cell distribution in cell cycle (%) M2: [4, 12]: 76.16%
Proportion of cell distribution in cell cycle (%) M3: [4, 12]: 6.10%
Proportion of cell distribution in cell cycle (%) M4: [4, 12]: 12.87%
Proportion of cell distribution in cell cycle (%) M1: [4, 13]: 16.20%
Proportion of cell distribution in cell cycle (%) M2: [4, 13]: 65.01%
Proportion of cell distribution in cell cycle (%) M3: [4, 13]: 6.24%
Proportion of cell distribution in cell cycle (%) M4: [4, 13]: 12.69%
Proportion of cell distribution in cell cycle (%) M1: [4, 14]: 65.46%
Proportion of cell distribution in cell cycle (%) M2: [4, 14]: 22.64%
Proportion of cell distribution in cell cycle (%) M3: [4, 14]: 4.81%
Proportion of cell distribution in cell cycle (%) M4: [4, 14]: 7.22%
Proportion of cell distribution in cell cycle (%) M1: [4, 15]: 83.26%
Proportion of cell distribution in cell cycle (%) M2: [4, 15]: 11.13%
Proportion of cell distribution in cell cycle (%) M3: [4, 15]: 1.73%
Proportion of cell distribution in cell cycle (%) M4: [4, 15]: 3.93%
cell division (cell cycle, in words) ([4]; 12.5 μM or more, 48 hrs): most cells were unable to undergo cell division
Proportion of cell distribution in cell cycle (%) M1: ([4]; 25 μM Amlodipine, 48 hrs): 99.75%
Proportion of cell distribution in cell cycle (%) M2: ([4]; 25 μM Amlodipine, 48 hrs): 0.22%
Proportion of cell distribution in cell cycle (%) M3: ([4]; 25 μM Amlodipine, 48 hrs): 0.00%
Proportion of cell distribution in cell cycle (%) M4: ([4]; 25 μM Amlodipine, 48 hrs): 0.94%
Crude HR HRs (95% C.I.) [5, 8]: 0.54 (0.50-0.59)
Crude HR HRs (95% C.I.) [5, 9]: 0.53 (0.48-0.57)
Crude HR HRs (95% C.I.) [5, 10]: 0.50 (0.46-0.55)
Crude HR HRs (95% C.I.) [5, 11]: 0.91 (0.83-0.99)
Amlodipine concentration at which the best inhibitory effect on the growth of liver cancer cells is achieved [6]: greater than or equal to 12.5 μM
cell viability of liver cancer cells treated with Amlodipine ([6]; 1.5625-50 μM, 48 and 72 hrs, FIGS. 10, 13-15): decreased
cell invasion (crystal violet staining) [7]: lower

— patent US10688086B2, “Method for treating cancer with dihydropyridine calcium antagonist” (GERMARK BIOTECHNOLOGY CO., LTD, priority 2016, dated 2020)
